Measured values: patent US20110002993A1, “FILM COATED TABLETS CONTAINING DROSPIRENONE AS ACTIVE AGENT AND A METHOD FOR THE PREPARATION THEREOF” (RICHTER GEDEON NYRT., priority 2007, published 2011)

Assay: solubility of drospirenone in water
Type: physicochemical
Description: For dissolution of such a large amount of active agent a large amount of pharmaceutically and environmentally acceptable solvent is needed. […] In the preparation process according to the invention the solvent is ethanol. Ethanol is the most advantageous solvent from the environmental and safety point of views.

solubility in water: substantially insoluble in water
Compound: C[C@]12CCC(=O)C=C1[C@@H]1C[C@@H]1[C@H]1[C@@H]3[C@@H]4C[C@@H]4[C@@]4(CCC(=O)O4)[C@@]3(C)CC[C@@H]12 [drospirenone, 6β,7β;15β,16β-dimethylene-3-oxo-17α-pregn-4-en-21,17-carbolactone]
